Bridge positions count the residues as written; N and C are the ends. Square brackets hold non-standard residues; d marks the D form. Peptide text beside a SMILES is read from it. 1Nal = N[C@@H](Cc1cccc2ccccc12)C(=O)O

Drawing on patent US20090299044A1 (priority 2006, published 2009), this text covers IC50 for eight compounds.

One assay concerns the target T1, human Kv1.1 (HEK293) (Homo sapiens, UniProt Q09470).
T1 construct: expressed in transfected cells; host or cells: HEK293
Put plainly: cell-based.

The target in the next assay is T2, human Kv1.3 (CHO) (Homo sapiens, UniProt P22001).
T2 construct: expressed in transfected cells; host or cells: CHO
T2 sequence (P22001 whole entry): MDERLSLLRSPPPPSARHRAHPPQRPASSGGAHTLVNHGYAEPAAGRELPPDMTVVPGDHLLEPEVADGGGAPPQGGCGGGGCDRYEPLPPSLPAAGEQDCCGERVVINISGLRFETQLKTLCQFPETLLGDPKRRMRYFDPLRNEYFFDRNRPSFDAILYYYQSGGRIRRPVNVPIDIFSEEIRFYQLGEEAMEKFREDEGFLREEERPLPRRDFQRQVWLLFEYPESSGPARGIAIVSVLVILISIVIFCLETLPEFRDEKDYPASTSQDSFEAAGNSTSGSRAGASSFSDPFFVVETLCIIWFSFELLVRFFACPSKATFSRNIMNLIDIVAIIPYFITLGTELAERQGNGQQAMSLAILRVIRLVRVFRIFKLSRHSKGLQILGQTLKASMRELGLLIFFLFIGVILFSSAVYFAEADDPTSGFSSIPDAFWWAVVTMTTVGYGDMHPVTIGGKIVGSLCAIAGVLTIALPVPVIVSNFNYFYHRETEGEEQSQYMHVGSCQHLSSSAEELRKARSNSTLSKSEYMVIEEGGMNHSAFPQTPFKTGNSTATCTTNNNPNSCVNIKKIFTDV
The assay can be described thus: cell-based.

T1 sequence (Q09470 whole entry): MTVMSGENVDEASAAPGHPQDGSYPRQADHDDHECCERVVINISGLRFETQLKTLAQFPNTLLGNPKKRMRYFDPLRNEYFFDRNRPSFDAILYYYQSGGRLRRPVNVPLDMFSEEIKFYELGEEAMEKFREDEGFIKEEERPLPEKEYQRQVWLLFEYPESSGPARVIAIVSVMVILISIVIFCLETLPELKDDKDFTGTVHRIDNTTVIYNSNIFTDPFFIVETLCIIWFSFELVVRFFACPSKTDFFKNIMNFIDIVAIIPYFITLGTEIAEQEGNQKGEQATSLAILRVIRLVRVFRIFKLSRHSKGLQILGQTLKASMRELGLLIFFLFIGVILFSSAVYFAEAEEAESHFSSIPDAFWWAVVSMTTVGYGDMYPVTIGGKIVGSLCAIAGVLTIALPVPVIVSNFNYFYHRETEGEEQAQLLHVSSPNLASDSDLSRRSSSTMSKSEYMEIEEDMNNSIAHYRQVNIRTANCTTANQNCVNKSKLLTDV

As for `CC[C@H](C)[C@@H]1NC(=O)[C@H](CCCCN)NC(=O)[C@@H](NC(=O)[C@H](CCCCN)NC(=O)[C@@H](NC(=O)[C@H](CC(N)=O)NC(=O)[C@@H](NC(=O)[C@@H](NC(=O)[C@@H](NC(=O)CN)C(C)C)[C@@H](C)CC)[C@@H](C)CC)C(C)C)CSSC[C@@H]2NC(=O)[C@H](CCCCN)NC(=O)CNC(=O)[C@H](Cc3ccccc3)NC(=O)[C@H](CCCNC(=N)N)NC(=O)[C@H](CCCNC(=N)N)NC(=O)CNC(=O)[C@H](C)NC(=O)[C@H](CCCCN)NC(=O)[C@H](CCCCN)NC(=O)[C@@H]3CSSC[C@@H](C(=O)N[C@H](C(=O)N4CCC[C@H]4C(=O)N[C@@H](CCCCN)C(=O)O)[C@@H](C)O)NC(=O)[C@H](Cc4c[nH]cn4)NC(=O)[C@H](CSSC[C@H](NC(=O)[C@H](CCC(N)=O)NC(=O)[C@H](CCCNC(=N)N)NC(=O)[C@H](CO)NC1=O)C(=O)N[C@@H](CC(C)C)C(=O)N[C@@H](CCC(=O)O)C(=O)N1CCC[C@H]1C(=O)N3)NC(=O)[C@H](CCCCN)NC(=O)CNC(=O)[C@H](CC(N)=O)NC(=O)[C@H](CCSC)NC2=O` [M23R] (H-GVIINVKCKISRQCLEPCKKAGRRFGKCMNGKCHCTPK-OH; disulfide 8-28, 14-33, 18-35), the IC50 at human Kv1.1 (HEK293) was determined as 0.00201 nM; against human Kv1.3 (CHO), 0.0123 nM.
Regarding `CC[C@H](C)[C@@H]1NC(=O)[C@H](CCCCN)NC(=O)[C@@H](NC(=O)[C@H](CCCCN)NC(=O)[C@@H](NC(=O)[C@H](CC(N)=O)NC(=O)[C@@H](NC(=O)[C@@H](NC(=O)[C@@H](NC(=O)CN)C(C)C)[C@@H](C)CC)[C@@H](C)CC)C(C)C)CSSC[C@@H]2NC(=O)[C@H](CCCCN)NC(=O)CNC(=O)[C@H](Cc3ccccc3)NC(=O)[C@H](CCCNC(=N)N)NC(=O)[C@H](CCSC)NC(=O)CNC(=O)[C@H](C)NC(=O)[C@H](CCCCN)NC(=O)[C@H](CCCCN)NC(=O)[C@@H]3CSSC[C@@H](C(=O)N[C@H](C(=O)N4CCC[C@H]4C(=O)N[C@@H](CCCCN)C(=O)O)[C@@H](C)O)NC(=O)[C@H](Cc4c[nH]cn4)NC(=O)[C@H](CSSC[C@H](NC(=O)[C@H](CCC(N)=O)NC(=O)[C@H](CCCNC(=N)N)NC(=O)[C@H](CO)NC1=O)C(=O)N[C@@H](CC(C)C)C(=O)N[C@@H](CCC(=O)O)C(=O)N1CCC[C@H]1C(=O)N3)NC(=O)[C@H](CCCCN)NC(=O)CNC(=O)[C@H](CC(N)=O)NC(=O)[C@H](CCC(=O)O)NC2=O` [M29E] (H-GVIINVKCKISRQCLEPCKKAGMRFGKCENGKCHCTPK-OH; disulfide 8-28, 14-33, 18-35), the IC50 against human Kv1.1 (HEK293) and on human Kv1.3 (CHO) was over 3.33 nM in each case.
Regarding `CC[C@H](C)[C@@H]1NC(=O)[C@H](CCCCN)NC(=O)[C@@H](NC(=O)[C@H](CCCCN)NC(=O)[C@@H](NC(=O)[C@H](C)NC(=O)[C@@H](NC(=O)[C@@H](NC(=O)[C@@H](NC(=O)CN)C(C)C)[C@@H](C)CC)[C@@H](C)CC)C(C)C)CSSC[C@@H]2NC(=O)[C@H](CCCCN)NC(=O)CNC(=O)[C@H](Cc3ccccc3)NC(=O)[C@H](CCCNC(=N)N)NC(=O)[C@H](CCSC)NC(=O)CNC(=O)[C@H](C)NC(=O)[C@H](CCCCN)NC(=O)[C@H](CCCCN)NC(=O)[C@@H]3CSSC[C@@H](C(=O)N[C@H](C(=O)N4CCC[C@H]4C(=O)N[C@@H](CCCCN)C(=O)O)[C@@H](C)O)NC(=O)[C@H](Cc4c[nH]cn4)NC(=O)[C@H](CSSC[C@H](NC(=O)[C@H](CCC(N)=O)NC(=O)[C@H](CCCNC(=N)N)NC(=O)[C@H](CO)NC1=O)C(=O)N[C@@H](CC(C)C)C(=O)N[C@@H](CCC(=O)O)C(=O)N1CCC[C@H]1C(=O)N3)NC(=O)[C@H](CCCCN)NC(=O)CNC(=O)[C@H](CC(N)=O)NC(=O)[C@H](CCSC)NC2=O` [N5A] (H-GVIIAVKCKISRQCLEPCKKAGMRFGKCMNGKCHCTPK-OH; disulfide 8-28, 14-33, 18-35), the values for the IC50 at human Kv1.1 (HEK293) and at human Kv1.3 (CHO) were 0.014 nM and 0.16 nM, respectively.
With `CC[C@H](C)[C@@H]1NC(=O)[C@H](CCCCN)NC(=O)[C@@H](NC(=O)[C@H](CCCCN)NC(=O)[C@@H](NC(=O)[C@H](CCC(=O)O)NC(=O)[C@@H](NC(=O)[C@@H](NC(=O)[C@@H](NC(=O)CN)C(C)C)[C@@H](C)CC)[C@@H](C)CC)C(C)C)CSSC[C@@H]2NC(=O)[C@H](CCCCN)NC(=O)CNC(=O)[C@H](Cc3ccccc3)NC(=O)[C@H](CCCNC(=N)N)NC(=O)[C@H](CCSC)NC(=O)CNC(=O)[C@H](C)NC(=O)[C@H](CCCCN)NC(=O)[C@H](CCCCN)NC(=O)[C@@H]3CSSC[C@@H](C(=O)N[C@H](C(=O)N4CCC[C@H]4C(=O)N[C@@H](CCCCN)C(=O)O)[C@@H](C)O)NC(=O)[C@H](Cc4c[nH]cn4)NC(=O)[C@H](CSSC[C@H](NC(=O)[C@H](CCC(N)=O)NC(=O)[C@H](CCCNC(=N)N)NC(=O)[C@H](CO)NC1=O)C(=O)N[C@@H](CC(C)C)C(=O)N[C@@H](CCC(=O)O)C(=O)N1CCC[C@H]1C(=O)N3)NC(=O)[C@H](CCCCN)NC(=O)CNC(=O)[C@H](CC(N)=O)NC(=O)[C@H](CCSC)NC2=O` [N5E] (H-GVIIEVKCKISRQCLEPCKKAGMRFGKCMNGKCHCTPK-OH; disulfide 8-28, 14-33, 18-35), the IC50 at human Kv1.1 (HEK293) was found to be 0.00444 nM; against human Kv1.3 (CHO), 0.0234 nM.
As for `CC[C@H](C)[C@@H]1NC(=O)[C@H](CCCCN)NC(=O)[C@@H](NC(=O)[C@H](CCCCN)NC(=O)[C@@H](NC(=O)[C@H](Cc2cccc3ccccc23)NC(=O)[C@@H](NC(=O)[C@@H](NC(=O)[C@@H](NC(=O)CN)C(C)C)[C@@H](C)CC)[C@@H](C)CC)C(C)C)CSSC[C@@H]2NC(=O)[C@H](CCCCN)NC(=O)CNC(=O)[C@H](Cc3ccccc3)NC(=O)[C@H](CCCNC(=N)N)NC(=O)[C@H](CCSC)NC(=O)CNC(=O)[C@H](C)NC(=O)[C@H](CCCCN)NC(=O)[C@H](CCCCN)NC(=O)[C@@H]3CSSC[C@@H](C(=O)N[C@H](C(=O)N4CCC[C@H]4C(=O)N[C@@H](CCCCN)C(=O)O)[C@@H](C)O)NC(=O)[C@H](Cc4c[nH]cn4)NC(=O)[C@H](CSSC[C@H](NC(=O)[C@H](CCC(N)=O)NC(=O)[C@H](CCCNC(=N)N)NC(=O)[C@H](CO)NC1=O)C(=O)N[C@@H](CC(C)C)C(=O)N[C@@H](CCC(=O)O)C(=O)N1CCC[C@H]1C(=O)N3)NC(=O)[C@H](CCCCN)NC(=O)CNC(=O)[C@H](CC(N)=O)NC(=O)[C@H](CCSC)NC2=O` [N5Nal] (H-GVII[1Nal]VKCKISRQCLEPCKKAGMRFGKCMNGKCHCTPK-OH; disulfide 8-28, 14-33, 18-35), the IC50 is under 0.00152 nM against human Kv1.1 (HEK293) and 0.0218 nM at human Kv1.3 (CHO).
Regarding `CC[C@H](C)[C@@H]1NC(=O)[C@H](CCCCN)NC(=O)[C@@H](NC(=O)[C@H](CCCCN)NC(=O)[C@@H](NC(=O)[C@H](CCCNC(=N)N)NC(=O)[C@@H](NC(=O)[C@@H](NC(=O)[C@@H](NC(=O)CN)C(C)C)[C@@H](C)CC)[C@@H](C)CC)C(C)C)CSSC[C@@H]2NC(=O)[C@H](CCCCN)NC(=O)CNC(=O)[C@H](Cc3ccccc3)NC(=O)[C@H](CCCNC(=N)N)NC(=O)[C@H](CCSC)NC(=O)CNC(=O)[C@H](C)NC(=O)[C@H](CCCCN)NC(=O)[C@H](CCCCN)NC(=O)[C@@H]3CSSC[C@@H](C(=O)N[C@H](C(=O)N4CCC[C@H]4C(=O)N[C@@H](CCCCN)C(=O)O)[C@@H](C)O)NC(=O)[C@H](Cc4c[nH]cn4)NC(=O)[C@H](CSSC[C@H](NC(=O)[C@H](CCC(N)=O)NC(=O)[C@H](CCCNC(=N)N)NC(=O)[C@H](CO)NC1=O)C(=O)N[C@@H](CC(C)C)C(=O)N[C@@H](CCC(=O)O)C(=O)N1CCC[C@H]1C(=O)N3)NC(=O)[C@H](CCCCN)NC(=O)CNC(=O)[C@H](CC(N)=O)NC(=O)[C@H](CCSC)NC2=O` [N5R] (H-GVIIRVKCKISRQCLEPCKKAGMRFGKCMNGKCHCTPK-OH; disulfide 8-28, 14-33, 18-35), the IC50 at human Kv1.1 (HEK293) was 0.00215 nM; against human Kv1.3 (CHO), 0.0136 nM.
Taken in the same sequence, the figures for `CC[C@H](C)[C@@H]1NC(=O)[C@H](CCCCN)NC(=O)[C@@H](NC(=O)[C@H](CCCCN)NC(=O)[C@@H](NC(=O)[C@H](CC(N)=O)NC(=O)[C@@H](NC(=O)[C@@H](NC(=O)[C@@H](NC(=O)CN)C(C)C)[C@@H](C)CC)[C@@H](C)CC)C(C)C)CSSC[C@@H]2NC(=O)[C@H](CCCCN)NC(=O)CNC(=O)[C@H](Cc3ccccc3)NC(=O)[C@H](CCCNC(=N)N)NC(=O)[C@H](CCSC)NC(=O)CNC(=O)[C@H](C)NC(=O)[C@H](CCCCN)NC(=O)[C@H](CCCCN)NC(=O)[C@@H]3CSSC[C@@H](C(=O)N[C@H](C(=O)N4CCC[C@H]4C(=O)N[C@@H](CCCCN)C(=O)O)[C@@H](C)O)NC(=O)[C@H](Cc4c[nH]cn4)NC(=O)[C@H](CSSC[C@H](NC(=O)[C@H](CCC(N)=O)NC(=O)[C@H](CCCNC(=N)N)NC(=O)[C@H](CO)NC1=O)C(=O)N[C@@H](CC(C)C)C(=O)N[C@@H](CCC(=O)O)C(=O)N1CCC[C@H]1C(=O)N3)NC(=O)[C@H](CCCCN)NC(=O)CNC(=O)[C@H](CCCNC(=N)N)NC(=O)[C@H](CCSC)NC2=O` [N30R] (H-GVIINVKCKISRQCLEPCKKAGMRFGKCMRGKCHCTPK-OH; disulfide 8-28, 14-33, 18-35) were 0.0457 nM and 0.0189 nM.
As for `CC[C@H](C)[C@@H]1NC(=O)[C@H](CCCCN)NC(=O)[C@@H](NC(=O)[C@H](CCCCN)NC(=O)[C@@H](NC(=O)[C@H](CC(N)=O)NC(=O)[C@@H](NC(=O)[C@@H](NC(=O)[C@@H](NC(=O)CN)C(C)C)[C@@H](C)CC)[C@@H](C)CC)C(C)C)CSSC[C@@H]2NC(=O)[C@H](CCCCN)NC(=O)CNC(=O)[C@H](Cc3ccccc3)NC(=O)[C@H](CCCNC(=N)N)NC(=O)[C@H](CCSC)NC(=O)CNC(=O)[C@H](C)NC(=O)[C@H](CCCCN)NC(=O)[C@H](CCCCN)NC(=O)[C@@H]3CSSC[C@@H](C(=O)N[C@H](C(=O)N4CCC[C@H]4C(=O)N[C@@H](CCCCN)C(=O)O)[C@@H](C)O)NC(=O)[C@H](Cc4c[nH]cn4)NC(=O)[C@H](CSSC[C@H](NC(=O)[C@H](CCC(N)=O)NC(=O)[C@H](CCCNC(=N)N)NC(=O)[C@H](CO)NC1=O)C(=O)N[C@@H](CC(C)C)C(=O)N[C@@H](CCC(=O)O)C(=O)N[C@@H](C)C(=O)N3)NC(=O)[C@H](CCCCN)NC(=O)CNC(=O)[C@H](CC(N)=O)NC(=O)[C@H](CCSC)NC2=O` [P17A] (H-GVIINVKCKISRQCLEACKKAGMRFGKCMNGKCHCTPK-OH; disulfide 8-28, 14-33, 18-35), the figures for the IC50 against human Kv1.1 (HEK293) and against human Kv1.3 (CHO) were 0.00908 nM and 0.0339 nM, respectively.
